From patent publication US7220784B2, “Substituted stilbenes and their reactions” (priority 2000, dated 2007)
Where “and” joins values, the source holds several entries; their conditions need not be identical. Equal entries are not always repeated. Where two headings read alike, the source gives them in different places.

Tests used:
tubulin = system: T1, tubulin; experiment: Inhibition of tubulin assembly; assay type: biochemical; details: concentration required to reduce assembly of tubulin by 50%
T1 construct: other: concentration required to reduce assembly of tubulin by 50%
Method: (§1) The following assays (1–5) were carried out as described in our paper (Woods, et al, British Journal of Cancer, 71, 705–711 (1995)). In addition to the cell lines described in this paper, other established human cell lines (K562, HUVEC, H460, BE, H529, and HT29) were used in the cytotoxicity/growth inhibition assay. • (1) Inhibition of tubulin assembly. The figure quoted is the concentration required to reduce assembly of tubulin by 50%. Tubulin assembly is monitored by light scatter/absorption at 350 nm.

[1] = system: K562 human myelogeneous leukaemia cell line; experiment: Cytotoxicity/growth inhibition assay (MTT), K562; assay type: cell-based; details: Homo sapiens, K562; MTT; read-out: K562 IC50
In short: (§2)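 Growth inhibition of P388 murine and K562 human leukaemia cells measured by MTT assay.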

HUVEC = experiment: Growth inhibition studies using HUVEC; assay type: cell-based, human
Method: as §1
(§3) (2) Competition for the colchicine binding site on tubulin. The figure quoted represents the % of ^3H-colchicine bound following co-incubation of test compound and ^3H-cochicine with isolated tubulin. Where ester pro-drugs were used the experiments were carried out in the presence and absence of porcine liver esterase. • (3) Cytotoxicity/growth inhibition assay. This was carried out by the MTT assay. • (4) Permeability (shape-change) assay in endothelial cells. This was carried out using a method based on that of Watts et al. (Anticancer Res., 17, 71–75, (1997)). This involved the diffusion of a fluorescently labelled dextran through a barrier of endothelial cells (HUVEC) grown to confluence on a porous membrane. The effect of agents to alter the shape of these cells results in an increase in the permeability of the cells to the dye. The figure represents the increase in permeability over control cultures when drug is added (30 minutes, 1 mM.). • (5) Experiments to study the anti-vascular effects of these agents were carried out as described previously by our group. (Zhao et al, European Journal of Nuclear Medicine, 26, 231–238 (1999)). The anti-vascular effects of the agents were monitored by either positron emission tomography (PET) or by histologogical examination following treatment of mice bearing T50:80 murine breast tumours, or H460 human lung tumours. • (6) Anti-tumour efficacy of agents was determined in xenografts of H460 human lung cancer. Animals (n=5) were trated either with 5 daily injections and tumour size measured with time following treatment. • (7) The pharmacokinetic profile of agents was determined in mice following injection with drug. Blood was taken at various times following treatment and analysed by HPLC with UV detection. The HPLC conditions were isocratic using a 5 micron C18 BDS column (150×4.6) ad eluting with 75% MeOH in water with a detection wavelength of 290 nm. […] (AND(P)H:quinone oxidoreductace, EC 1.6.99.2). DT-diaphorase is an enzyme over-expressed in a number of human tumours. […] This two-electron reducing enzyme can be used to selectively activate prodrugs within cancers which over-express the enzyme.

[2] = system: colchicine binding site on tubulin; experiment: Competition for the colchicine binding site on tubulin
[3] = system: P388 murine leukaemia cell line; experiment: Cytotoxicity/growth inhibition assay (MTT), P388; assay type: cell-based
In short: as §2

A2780 = experiment: Cytotoxicity/growth inhibition assay (MTT), A2780; assay type: cell-based
In short: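 MTT cytotoxicity/growth-inhibition assay in human cell lines including A2780, A2780/ADR, H460 and HUVEC.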

[4] = system: H460 human lung cell line; experiment: Cytotoxicity/growth inhibition assay (MTT), H460; assay type: cell-based
Method: as §1, §3

[5] = system: H460 human lung cancer xenografts; experiment: Anti-tumour efficacy in xenografts of H460 human lung cancer; assay type: in vivo, mice; details: H460 human lung cancer xenograft
Method: (§4) (2) Competition for the colchicine binding site on tubulin. The figure quoted represents the % of ^3H-colchicine bound following co-incubation of test compound and ^3H-cochicine with isolated tubulin. Where ester pro-drugs were used the experiments were carried out in the presence and absence of porcine liver esterase. • (3) Cytotoxicity/growth inhibition assay. This was carried out by the MTT assay. • (4) Permeability (shape-change) assay in endothelial cells. This was carried out using a method based on that of Watts et al. (Anticancer Res., 17, 71–75, (1997)). This involved the diffusion of a fluorescently labelled dextran through a barrier of endothelial cells (HUVEC) grown to confluence on a porous membrane. […] The anti-vascular effects of the agents were monitored by either positron emission tomography (PET) or by histologogical examination following treatment of mice bearing T50:80 murine breast tumours, or H460 human lung tumours. • (6) Anti-tumour efficacy of agents was determined in xenografts of H460 human lung cancer. Animals (n=5) were trated either with 5 daily injections and tumour size measured with time following treatment. • (7) The pharmacokinetic profile of agents was determined in mice following injection with drug. Blood was taken at various times following treatment and analysed by HPLC with UV detection. […]

DT-diaphorase = DT-diaphorase (Homo sapiens, UniProt P15559); experiment: Activation of quinone prodrugs by DT-diaphorase; assay type: biochemical; details: comparable to RH1
Method: as §4

[6] = system: H460 human lung xenograft; experiment: Tumour damage in H460 human lung xenograft grown subcutaneously; assay type: in vivo; details: 0.75×MTD, i.p., twenty four hours following injection
Method: The effect of compounds 97–64H and 97–96 (quinone compound) was tested on H460 human lung xenograft grown subcutaneously by injecting equitoxic doses of the compounds (0.75×MTD).

[7] = system: diaphorase null H596 cell line; experiment: Cytotoxicity/growth inhibition assay (MTT), H596; assay type: cell-based
Method: as §1
(2) Competition for the colchicine binding site on tubulin. The figure quoted represents the % of ^3H-colchicine bound following co-incubation of test compound and ^3H-cochicine with isolated tubulin. Where ester pro-drugs were used the experiments were carried out in the presence and absence of porcine liver esterase. • (3) Cytotoxicity/growth inhibition assay. This was carried out by the MTT assay. • (4) Permeability (shape-change) assay in endothelial cells. This was carried out using a method based on that of Watts et al. (Anticancer Res., 17, 71–75, (1997)). This involved the diffusion of a fluorescently labelled dextran through a barrier of endothelial cells (HUVEC) grown to confluence on a porous membrane. The effect of agents to alter the shape of these cells results in an increase in the permeability of the cells to the dye. The figure represents the increase in permeability over control cultures when drug is added (30 minutes, 1 mM.). • (5) Experiments to study the anti-vascular effects of these agents were carried out as described previously by our group. (Zhao et al, European Journal of Nuclear Medicine, 26, 231–238 (1999)). The anti-vascular effects of the agents were monitored by either positron emission tomography (PET) or by histologogical examination following treatment of mice bearing T50:80 murine breast tumours, or H460 human lung tumours. • (6) Anti-tumour efficacy of agents was determined in xenografts of H460 human lung cancer. Animals (n=5) were trated either with 5 daily injections and tumour size measured with time following treatment. • (7) The pharmacokinetic profile of agents was determined in mice following injection with drug. Blood was taken at various times following treatment and analysed by HPLC with UV detection. The HPLC conditions were isocratic using a 5 micron C18 BDS column (150×4.6) ad eluting with 75% MeOH in water with a detection wavelength of 290 nm. The retention time of 6.6 mins for 97–64H. • (8) Activation of quinone prodrugs by DT-diaphorase. (AND(P)H:quinone oxidoreductace, EC 1.6.99.2). DT-diaphorase is an enzyme over-expressed in a number of human tumours. We have recently shown this enzyme to be highly expressed in the endothelial cells of blood vessels. This two-electron reducing enzyme can be used to selectively activate prodrugs within cancers which over-express the enzyme. We have therefore synthesised quinone pro-drugs (97–96, 98–40, 98–23, 98–33, 98–24) which, upon reduction by the enzyme, produces an agent (a hydroquinone stilbene) which is cytotoxic.
A series of prodrugs capable of being activated by DT-diaphorase, an enzyme over-expressed in a wide range of human cancers and in endothelial cells of the vasculature were synthesised. The rationale for this is that these agents will be activated in situ by the tumours over-expressing the enzyme, thus giving rise to a high local concentration of active drug. This confers selectivity to this agent. These quinone prodrugs (97–96 and 98–23) were tested for their ability to act as substrates for DT-diaphorase. […] This agent may therefore have a role in the treatment of tumours that over-express DT-diaphorase. Similarly, these agents maybe selectively activated in the endothelial cells of the vasculature, thereby conferring a selective anti-vascular effect.

Chain of DT-diaphorase (P15559 whole entry, species assumed): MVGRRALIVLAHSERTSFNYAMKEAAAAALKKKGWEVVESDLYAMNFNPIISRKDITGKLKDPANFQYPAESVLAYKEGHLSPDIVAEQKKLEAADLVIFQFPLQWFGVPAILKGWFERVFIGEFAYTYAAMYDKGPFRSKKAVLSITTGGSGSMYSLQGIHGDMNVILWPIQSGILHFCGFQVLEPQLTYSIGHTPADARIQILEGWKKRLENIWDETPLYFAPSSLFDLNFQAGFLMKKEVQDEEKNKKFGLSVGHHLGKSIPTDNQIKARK

Structure (SMILES) | melting point [°C] | IC50 (tubulin) [µM] | Colchicine % Inhibition [2] | IC50 ([3]; MTT) [nM] | IC50 (A2780; read-out: A2780 IC50) [nM] | further results
COC(=O)CCOc1cc([N+](=O)[O-])c(CCc2cc(/C=C\c3cc(OC)c(OC)c(OC)c3)ccc2OC)cc1OC | 132 to 134 |  |  |  |  | 
COc1ccc(/C=C(/C)c2cc(OC)c(OC)c(OC)c2)cc1O [Compound 19, Z-(3′-Hydroxy-4′-methoxyphenyl)-2-(3″,4″,5″-trimethoxyphenyl)propene] | 156 to 158 | 1.8 |  |  |  | IC50 [1]: 40 nM
COc1ccc(/C=C\c2cc(C)c(C)c(C)c2)cc1O [Compound 28, (Z)-1-(3′,4′,5′-trimethylphenyl)-2-(3″-hydroxy-4″-methoxyphenyl)ethene] | 60 to 61 | 1.5 |  |  |  | IC50 [1]: 21 nM
COc1ccc(C=Cc2cc(OC)c(OC)c(OC)c2)cc1OC(=O)c1ccncc1 [Compound 96-167] |  | 9 | 3.8% | 0.8 | 0.37 | IC50 (HUVEC; Homo sapiens, HUVEC): 40 nM
COc1ccc(C=Cc2cc(OC)c(OC)c(OC)c2)cc1OC(=O)c1ccncc1 [Compound 97-07] |  | 10 | 6.6% and 12.3% | 2.3 | 1.47 | IC50 ([4]; Homo sapiens, NCI-H460): 2780 nM
COc1ccc(/C=C\c2cc(OC)c(OC)c(OC)c2)cc1Oc1c(F)c(F)nc(F)c1F [Compound 97-13H] |  | > 100 | 84.2% | 32.6 | 17.9 | IC50 (HUVEC): 45 nM; IC50 [4]: 32 to 35 nM
COc1ccc(C=Cc2cc(OC)c(OC)c(OC)c2)cc1F [Compound 97-64L] |  | > 100 | 43% | 171 | 113 | 
COC1=CC(=O)C(/C=C\c2cc(OC)c(OC)c(OC)c2)=CC1=O [Compound 97-96, 2-Methoxy-5-[(Z)-2-(3′,4′,5′-trimethoxyphenyl)-vinyl]-[1,4]benzoquinone] |  | < 1.25 |  |  |  | anti-tumour activity in vivo [5]: active; IC50 (HUVEC): 220 nM; IC50 (HUVEC; Homo sapiens, HUVEC): 230 nM; ability to act as substrate for DT-diaphorase (DT-diaphorase): good substrates for the enzyme; tumour damage [6]: extensive damage to the tumours; IC50 ([3]; Mus musculus, P388): 570 nM; IC50 ([3]; Mus musculus, P388, MTT): 570 nM; IC50 (A2780; Homo sapiens, A2780, read-out: A2780 IC50): 190 nM; IC50 (A2780; Homo sapiens, A2780, read-out: IC50 (nM) A2780): 190 nM; IC50 ([4]; Homo sapiens, NCI-H460): 38 nM; IC50 ([7]; Homo sapiens, NCI-H596): 620 nM; H596/H460 ([7]; ratio of IC50, diaphorase null H596 over H460): 16
